In patent US11166460B2, “α-amino acrylate microbicide, and preparation method therefor and uses thereof” (priority 2017, dated 2021):
Converted amounts (≈) assume the structure as drawn. Read-outs that look alike come from different tables or passages of the source.

How the values were obtained:
[1] = system: tobacco mosaic virus (TMV); assay: Anti-TMV curative activity (treatment mode), live friction inoculation on tobacco seedlings; type: in vivo; conditions: Tobacco mosaic virus, read-out: Anti-TMV activity, Curative effect (inhibition), 100 μg/mL, tobacco seedlings, checked on seventh day
[2] = system: tobacco mosaic virus (TMV); assay: Anti-TMV inactivation activity (inactivation mode), compound mixed with TMV before inoculation of tobacco leaves; type: in vivo; conditions: Tobacco mosaic virus, read-out: Anti-TMV activity, Inactivation effect (inhibition)
[3] = system: tobacco mosaic virus (TMV); assay: Anti-TMV protective activity (protection mode), live friction inoculation on tobacco seedlings; type: in vivo; conditions: Tobacco mosaic virus, read-out: Anti-TMV activity, Protection effect (inhibition)
[4] = system: tobacco mosaic virus (TMV); assay: Anti-TMV inducing activity (induction mode), tobacco seedlings; type: in vivo; conditions: Tobacco mosaic virus, read-out: Anti-TMV activity, Induction effect (inhibition), 100 μg/mL, tobacco seedlings
[5] = system: Alternaria solani; assay: Fungicidal activity, fungi growth rate method, AS; type: cell-based; conditions: Alternaria solani, 50 μg/mL
[6] = system: Botrytis cinerea; assay: Fungicidal activity, fungi growth rate method, BC; type: cell-based; conditions: Botrytis cinerea, 50 μg/mL
[7] = system: Cercospora arachidicola; assay: Fungicidal activity, fungi growth rate method, CA; type: cell-based; conditions: Mycosphaerella arachidis, 50 μg/mL
[8] = system: wheat Gibberella zeae; assay: microbe, parasite or virus in culture; type: cell-based; conditions: Fusarium graminearum
[9] = system: Phytophthora infestans (Mont) de Bary; assay: microbe, parasite or virus in culture; type: cell-based; conditions: Phytophthora infestans
[10] = system: Physalospora piricola; assay: Fungicidal activity, fungi growth rate method, PP; type: cell-based; conditions: 50 μg/mL
[11] = system: Pellicularia sasakii; assay: Fungicidal activity, fungi growth rate method, PS; type: cell-based; conditions: 50 μg/mL
[12] = system: Rhizoctonia cerealis; assay: Fungicidal activity, fungi growth rate method, RC; type: cell-based; conditions: Ceratobasidium cereale, 50 μg/mL
[13] = system: Sclerotinia sclerotiorum; assay: microbe, parasite or virus in culture; type: cell-based; conditions: Sclerotinia sclerotiorum; for inhibition at 50 µg/mL: 50 μg/mL; for EC90: read-out: EC90 against S. sclerotiorum in vitro
[14] = read-out: Fungicidal activity, inhibition, AS
[15] = read-out: Fungicidal activity, inhibition, BC
[16] = read-out: Fungicidal activity, inhibition, CA
[17] = read-out: Fungicidal activity, inhibition, GZ
[18] = read-out: Fungicidal activity, inhibition, PI
[19] = read-out: Fungicidal activity, inhibition, PP
[20] = read-out: Fungicidal activity, inhibition, PS
[21] = read-out: Fungicidal activity, inhibition, RC
[22] = read-out: Fungicidal activity, inhibition, SS
[23] = read-out: Fungicidal activity (inhibition) against SS: Sclerotinia sclerotiorum

SMILES | inhibition at 100 µg/mL [1] | inhibition at 100 µg/mL [2] | inhibition at 100 µg/mL [3] | inhibition at 100 µg/mL [4] | inhibition at 50 µg/mL [5, 14] | inhibition at 50 µg/mL [6, 15] | inhibition at 50 µg/mL [7, 16] | inhibition at 50 µg/mL [8, 17] | inhibition at 50 µg/mL [9, 18] | inhibition at 50 µg/mL [10, 19] | inhibition at 50 µg/mL [11, 20] | inhibition at 50 µg/mL [12, 21] | inhibition at 50 µg/mL [13, 22] | melting point | EC90 [13] | inhibition at 50 µg/mL [13, 23] | further results
O=C(N/C(=C\c1ccc(C(F)(F)F)cc1)C(=O)N1CCC(O)(c2ccc(Br)cc2)CC1)c1ccccc1 [Compound 20, (Z)-N-[1-[[4-(4-bromophenyl)-4-hydroxy-1-piperidinyl]carbonyl]-2-(4-trifluoromethylphenyl)ethenyl]benzamide] | 0% | 0% | 52% | 53% | 17% | 7% | 16% | 7% | 21% | 10% | 21% | 19% | 67% | 137 to 139 °C | – | – | –
O=C(NCc1ccc(C(F)(F)F)cc1)/C(=C/c1ccccc1)NC(=O)c1ccccc1 [Compound 57, N-[(1Z)-2-phenyl-1-[[(4-trifluoromethylphenylmethyl)amino]carbonyl]ethenyl]benzamide] | 52% | 61% | 4% | 0% | 16% | 10% | 4% | 31% | 0% | 0% | 19% | 10% | 50% | 167 to 168 °C | – | – | –
O=C(N/C(=C\c1ccccc1)C(=O)N1CCC(O)(c2ccc(Br)cc2)CC1)c1ccc(Cl)cc1 [Compound 7, (Z)-N-[1-[[4-(4-bromophenyl)-4-hydroxy-1-piperidinyl]carbonyl]-2-phenylethenyl]-4-chlorobenzamide] | 39% | 31% | 50% | 1% | 25% | 21% | 18% | 71% | 16% | 12% | 20% | 18% | 44% | 193 to 194 °C | – | – | inhibition at 50 µg/mL ([8]; read-out: Fungicidal activity (inhibition) against GZ: wheat Gibberella zeae): 71%
O=C(N/C(=C\c1ccccc1)C(=O)N1CCC(O)(c2ccc(Br)cc2)CC1)c1ccco1 [Compound 13, (Z)-N-[1-[[4-(4-bromophenyl)-4-hydroxy-1-piperidinyl]carbonyl]-2-phenylethenyl]-2-furamide] | 47% | 69% | 26% | 30% | 15% | 24% | 16% | 33% | 27% | 16% | 21% | 22% | 95% | 138 to 140 °C | 195 µg/mL (≈ 394 µM) | – | –
O=C(NCc1ccc(Br)cc1)/C(=C/c1ccccc1)NC(=O)c1ccccc1 [Compound 46, N-[(1Z)-2-phenyl-1-[[(4-bromophenylmethyl)amino]carbonyl]ethenyl]benzamide] | 33% | 64% | 41% | 44% | 7% | 9% | 18% | 43% | 11% | 12% | 2% | 13% | 34% | 192 to 194 °C | – | – | –
O=C(OCc1ccc(Br)cc1)/C(=C/c1ccccc1)NC(=O)c1ccccc1 [Compound 61, N-[(1Z)-2-phenyl-1-[(4-bromophenymethoxyl)carbonyl]ethenyl]benzamide] | 0% | 13% | 16% | 0% | 25% | 18% | 12% | 29% | 11% | 6% | 9% | 13% | 44% | 168 to 170 °C | – | – | –
COc1ccc(CNC(=O)/C(=C/c2ccccc2)NC(=O)c2ccccc2)cc1 [Compound 54, N-[(1Z)-2-phenyl-1-[[(4-methoxyphenylmethyl)amino]carbonyl]ethenyl]benzamide] | 49% | 28% | 0% | 0% | 16% | 12% | 16% | 42% | 2% | 13% | 17% | 17% | 75% | 138 to 140 °C | – | 60 to 80% | –
CC(C)(C)OC(=O)N1CCC(C(=O)N/C(=C\c2ccccc2)C(=O)N2CCC(O)(c3ccc(Br)cc3)CC2)CC1 [Compound 3, (Z)-N-[1-[[4-(4-bromophenyl)-4-hydroxy-1-piperidinyl]carbonyl]-2-phenylethenyl]-1-Boc-piperidine-4-carboxamide] | 59% | 14% | 51% | 0% | 32% | 24% | 25% | 34% | 19% | 21% | 23% | 26% | 75% | 145 to 147 °C | – | 60 to 80% | –
O=C(N/C(=C\c1ccccc1)C(=O)N1CCC(O)(c2ccc(Br)cc2)CC1)c1ccc(C(F)(F)F)cc1 [Compound 9, (Z)-N-[1-[[4-(4-bromophenyl)-4-hydroxy-1-piperidinyl]carbonyl]-2-phenylethenyl]-4-(trifluoromethyl)benzamide] | 50% | 15% | 60% | 10% | 15% | 13% | 14% | 0% | 18% | 7% | 17% | 11% | 100% | 130 to 131 °C | 273 µg/mL (≈ 477 µM) | 100% | –
CONC(=O)/C(=C/c1csc(C2CCN(C(=O)OC(C)(C)C)CC2)n1)NC(=O)c1ccccc1 [Compound 42, (Z)-N-[1-[(methoxylamino)carbonyl]-2-[4-[2-[4-(1-Boc-piperidine)]thiazol]]ethenyl]benzamide] | 0% | 0% | 41% | 20% | 63% | 53% | 44% | 42% | 44% | 44% | 43% | 45% | 93% | 111 to 113 °C | 155 µg/mL (≈ 318 µM) | – | inhibition at 50 µg/mL ([5]; read-out: Fungicidal activity (inhibition) against AS: Alternaria solani): 63%; inhibition at 50 µg/mL ([6]; read-out: Fungicidal activity (inhibition) against BC: Botrytis cinerea): 53%; inhibition at 50 µg/mL ([7]; read-out: Fungicidal activity (inhibition) against CA: Cercospora arachidicola): 44%; inhibition at 50 µg/mL ([9]; read-out: Fungicidal activity (inhibition) against PI: Phytophthora infestans (Mont) de Bary): 44%; inhibition at 50 µg/mL ([10]; read-out: Fungicidal activity (inhibition) against PP: Physalospora piricola): 44%; inhibition at 50 µg/mL ([11]; read-out: Fungicidal activity (inhibition) against PS: Pellicularia sasakii): 43%; inhibition at 50 µg/mL ([12]; read-out: Fungicidal activity (inhibition) against RC: Rhizoctonia cerealis): 45%
